ChEMBL document CHEMBL5046289, “Targeting the S2 Subsite Enables the Structure-Based Discovery of Novel Highly Selective Factor XIa Inhibitors” (J Med Chem, 2022)
Activity calls are given as the source filed them. The rule behind the calls is not given here.

Assays:
[1] = Toxicity in C57BL/6J mouse assessed as bleeding risk at 20 mg/kg, iv measured after 15 mins by tail transection assay; type: organism-based; conditions: in vivo, 0.25 h
Homo sapiens [2] = species on record: Homo sapiens; test: Selectivity index, ratio of IC50 for thrombin (unknown origin) to IC50 for coagulation factor XIa (unknown origin)
[3] = Acute toxicity in ICR mouse assessed as histological change in liver at 50 to 100 mg/kg, iv as single dose for 14 days by H and E staining method; type: organism-based; conditions: in vivo, 336 h, dose 50-100 mg/kg, time 14 day
[4] = Apparent volume of distribution in Sprague-Dawley rat at 10 mg/kg, iv after 0.083 to 24 hrs by LC-MS/MS analysis; type: ADME, organism-based; conditions: in vivo, time 0.083-24 hrs, read-out: Vz
[5] = Clearance in Sprague-Dawley rat at 10 mg/kg, iv after 0.083 to 24 hrs by LC-MS/MS analysis; type: ADME, organism-based; conditions: in vivo, time 0.083-24 hrs
[6] = Acute toxicity in ICR mouse assessed as histological change in spleen at 50 to 100 mg/kg, iv as single dose for 14 days by H and E staining method; type: organism-based; conditions: in vivo, 336 h, dose 50-100 mg/kg, time 14 day
[7] = target: T1, Coagulation factor VII (Homo sapiens) (UniProt P08709); test: Inhibition of coagulation factor VIIa (unknown origin) assessed as chromogenic substrate using chromozyme t-PA as substrate at 1 mM incubated for 1 hr by spectrophotometer based microplate reader method
T1 sequence (whole entry): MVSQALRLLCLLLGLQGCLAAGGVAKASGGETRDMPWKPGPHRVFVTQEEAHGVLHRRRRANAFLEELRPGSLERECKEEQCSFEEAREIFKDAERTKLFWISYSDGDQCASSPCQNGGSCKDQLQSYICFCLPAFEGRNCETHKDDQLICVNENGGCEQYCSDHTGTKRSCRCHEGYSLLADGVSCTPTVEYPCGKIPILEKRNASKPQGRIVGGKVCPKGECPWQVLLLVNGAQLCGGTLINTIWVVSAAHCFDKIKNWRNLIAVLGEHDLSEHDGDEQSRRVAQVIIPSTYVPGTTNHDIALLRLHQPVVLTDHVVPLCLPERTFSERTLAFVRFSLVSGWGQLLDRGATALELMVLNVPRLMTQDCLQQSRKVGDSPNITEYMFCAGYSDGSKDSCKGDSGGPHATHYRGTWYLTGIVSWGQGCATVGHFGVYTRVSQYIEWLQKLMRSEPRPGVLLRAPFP

Homo sapiens [8] = species on record: Homo sapiens; test: Selectivity index, ratio of IC50 for plasma kallikrein (unknown origin) to IC50 for coagulation factor XIa (unknown origin)
[9] = Toxicity in C57BL/6J mouse assessed as bleeding risk at 19.5 to 39 mg/kg, iv measured after 15 mins by tail transection assay; type: organism-based; conditions: in vivo, 0.25 h, dose 19.5-39 mg/kg
Homo sapiens [10] = species on record: Homo sapiens; test: Selectivity index, ratio of IC50 for coagulation factor XIIa (unknown origin) to IC50 for coagulation factor XIa (unknown origin)
Plasma = test: Anticoagulant activity in mouse platelet-poor plasma assessed as increase in activated partial thromboplastin time at 22 ug/ml incubated for 3 mins by coagulometer analysis; type: functional, cell-free; conditions: dose 22.0 µg/ml
Homo sapiens [11] = species on record: Homo sapiens; test: Selectivity index, ratio of IC50 for trypsin (unknown origin) to IC50 for coagulation factor XIa (unknown origin)
Coagulation factor X = Coagulation factor X (Homo sapiens, UniProt P00742); test: Inhibition of coagulation factor Xa (unknown origin) assessed as chromogenic substrate using CS-11(22) as substrate incubated for 1 hr by spectrophotometer based microplate reader method
Sequence of Coagulation factor X (P00742 41-179 limits assumed): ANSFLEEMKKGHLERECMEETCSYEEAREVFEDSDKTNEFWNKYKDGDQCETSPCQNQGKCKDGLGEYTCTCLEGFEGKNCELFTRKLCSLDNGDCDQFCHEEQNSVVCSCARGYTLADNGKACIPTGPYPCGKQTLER
Sequence of Coagulation factor X (P00742 235-488 limits assumed): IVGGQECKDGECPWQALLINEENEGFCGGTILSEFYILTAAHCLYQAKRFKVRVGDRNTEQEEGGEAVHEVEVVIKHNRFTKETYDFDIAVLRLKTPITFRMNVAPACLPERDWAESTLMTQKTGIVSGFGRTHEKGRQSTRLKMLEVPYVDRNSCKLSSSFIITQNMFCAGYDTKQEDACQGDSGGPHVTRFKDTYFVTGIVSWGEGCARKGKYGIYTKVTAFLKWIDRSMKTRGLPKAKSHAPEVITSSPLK

[12] = target: Coagulation factor IX (Homo sapiens) (UniProt P00740); test: Inhibition of coagulation factor IXa (unknown origin) assessed as chromogenic substrate using ADG299 as substrate at 1 mM incubated for 1 hr by spectrophotometer based microplate reader method
Sequence of Coagulation factor IX (Homo sapiens) (P00740 47-191 limits assumed): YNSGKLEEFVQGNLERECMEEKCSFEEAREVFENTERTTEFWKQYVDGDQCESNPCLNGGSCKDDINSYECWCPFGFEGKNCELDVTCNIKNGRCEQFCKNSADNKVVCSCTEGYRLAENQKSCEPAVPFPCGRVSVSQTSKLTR
Sequence of Coagulation factor IX (Homo sapiens) (P00740 227-461 limits assumed): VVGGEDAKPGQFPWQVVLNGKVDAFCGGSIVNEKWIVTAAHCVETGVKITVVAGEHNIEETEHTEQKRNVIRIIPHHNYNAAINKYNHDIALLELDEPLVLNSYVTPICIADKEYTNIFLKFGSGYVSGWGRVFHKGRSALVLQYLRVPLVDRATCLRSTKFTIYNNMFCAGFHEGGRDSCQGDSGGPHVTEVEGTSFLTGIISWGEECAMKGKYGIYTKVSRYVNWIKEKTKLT

Homo sapiens [13] = species on record: Homo sapiens; test: Selectivity index, ratio of IC50 for coagulation factor IXa (unknown origin) to IC50 for coagulation factor XIa (unknown origin)
Prothrombin = Prothrombin (Homo sapiens, UniProt P00734); test: Inhibition of thrombin (unknown origin) assessed as chromogenic substrate using CS-10(38) as substrate incubated for 1 hr by spectrophotometer based microplate reader method
[14] = Cmax in Sprague-Dawley rat at 10 mg/kg, iv after 0.083 to 24 hrs by LC-MS/MS analysis; type: ADME, organism-based; design: route intravenous, dose 10 mg/kg, time upper 24 hrs, time lower 0.083 hrs; conditions: in vivo
[15] = Toxicity in C57BL/6J mouse assessed as bleeding risk at 60 to 100 mg/kg, iv measured after 15 mins by tail transection assay; type: organism-based; conditions: in vivo, 0.25 h, dose 60-100 mg/kg
Homo sapiens [16] = species on record: Homo sapiens; test: Selectivity index, ratio of IC50 for coagulation factor VIIa (unknown origin) to IC50 for coagulation factor XIa (unknown origin)
[17] = Acute toxicity in ICR male mouse assessed as effect on weight loss at 50 to 100 mg/kg, iv as single dose for 14 days; type: organism-based; conditions: in vivo, 336 h, dose 50-100 mg/kg, time 14 day
[18] = Acute toxicity in ICR mouse assessed as histological change in heart at 50 to 100 mg/kg, iv as single dose for 14 days by H and E staining method; type: organism-based; conditions: in vivo, 336 h, dose 50-100 mg/kg, time 14 day
Mus musculus [19] = test: Antithrombotic activity in C57BL/6J mouse model of FeCl3-induced carotid artery thrombosis assessed as time of occlusion pretreated at 6.5 mg/kg for 10 mins followed by FeCl3 addition for 3 mins and measured after 30 mins; type: functional, organism-based
Coagulation factor XI = Coagulation factor XI (Homo sapiens, UniProt P03951); test: Inhibition of coagulation factor XIa (unknown origin) assessed as chromogenic substrate hydrolysis using CS-21(66) as substrate incubated for 1 hr by spectrophotometer based microplate reader method
Sequence of Coagulation factor XI (P03951 19-387 limits assumed): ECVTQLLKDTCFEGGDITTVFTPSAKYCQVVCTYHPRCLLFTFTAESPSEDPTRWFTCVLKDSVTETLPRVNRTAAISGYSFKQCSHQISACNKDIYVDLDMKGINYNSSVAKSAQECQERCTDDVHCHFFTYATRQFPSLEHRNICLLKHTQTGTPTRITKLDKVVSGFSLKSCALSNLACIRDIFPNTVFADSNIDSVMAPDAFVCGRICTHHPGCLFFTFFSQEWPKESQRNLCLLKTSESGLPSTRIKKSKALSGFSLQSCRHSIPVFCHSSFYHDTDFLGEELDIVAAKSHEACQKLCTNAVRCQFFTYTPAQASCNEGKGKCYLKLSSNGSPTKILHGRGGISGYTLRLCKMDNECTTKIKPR
Sequence of Coagulation factor XI (P03951 388-625 limits assumed): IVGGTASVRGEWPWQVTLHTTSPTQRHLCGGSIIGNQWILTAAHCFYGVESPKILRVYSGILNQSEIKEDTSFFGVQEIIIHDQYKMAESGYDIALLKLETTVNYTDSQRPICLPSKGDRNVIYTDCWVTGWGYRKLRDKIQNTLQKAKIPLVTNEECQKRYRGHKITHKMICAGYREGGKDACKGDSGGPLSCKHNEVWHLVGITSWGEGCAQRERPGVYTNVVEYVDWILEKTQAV

Mus musculus [20] = test: Antithrombotic activity against FeCl3-induced carotid artery thrombosis C57BL/6J mouse model assessed as prolongation of occlusion time pretreated at 19.5 mg/kg, iv tail vein injection for 10 mins followed by FeCl3 addition for 3 mins and measured after 30 mins; type: functional, organism-based; conditions: time 43.0 min
[21] = Toxicity in C57BL/6J mouse assessed as bleeding risk at 35 mg/kg, iv measured after 15 mins by tail transection assay; type: organism-based; conditions: in vivo, 0.25 h
[22] = Acute toxicity in ICR female mouse assessed as effect on weight loss at 50 to 100 mg/kg, iv as single dose for 14 days; type: organism-based; conditions: in vivo, 336 h, dose 50-100 mg/kg, time 14 day
[23] = MRT(0 to t) in Sprague-Dawley rat at 10 mg/kg, iv after 0.083 to 24 hrs by LC-MS/MS analysis; type: ADME, organism-based; conditions: in vivo, time 0.083-24 hrs
[24] = AUC(0 to t) in Sprague-Dawley rat at 10 mg/kg, iv after 0.083 to 24 hrs by LC-MS/MS analysis; type: ADME, organism-based; design: route intravenous, time upper 24 hrs, time lower 0.083 hrs, dose 10 mg/kg; conditions: in vivo
[25] = AUC(0 to infinity) in Sprague-Dawley rat at 10 mg/kg, iv after 0.083 to 24 hrs by LC-MS/MS analysis; type: ADME, organism-based; design: route intravenous, dose 10 mg/kg, time upper 24 hrs, time lower 0.083 hrs; conditions: in vivo
[26] = Acute toxicity in ICR mouse assessed as histological change in kidney at 50 to 100 mg/kg, iv as single dose for 14 days by H and E staining method; type: organism-based; conditions: in vivo, 336 h, dose 50-100 mg/kg, time 14 day
[27] = Acute toxicity in ICR mouse assessed as histological change in lung at 50 to 100 mg/kg, iv as single dose for 14 days by H and E staining method; type: organism-based; conditions: in vivo, 336 h, dose 50-100 mg/kg, time 14 day

## O=C(/C=C/c1cc(Cl)ccc1-n1cnnn1)N[C@@H](CC(=O)N1CCN(c2ccccc2)CC1)C(=O)Nc1ccc(C(=O)O)cc1
[1]
  Activity: Non-Toxic
Homo sapiens [2]
  Ratio IC50: > 5000
[3]
  Activity: Non-Toxic
[4]
  Vd: 0.969 L/kg
[5]
  clearance: 9.22 mL/min/kg
[6]
  Activity: Non-Toxic
[7]
  inhibition: inactive
Homo sapiens [8]
  Ratio IC50: 1960
[9]
  Activity: Non-Toxic
Homo sapiens [10]
  Ratio IC50: > 5000
Plasma
  Activity: Active
Homo sapiens [11]
  Ratio IC50: > 5000
Coagulation factor X
  IC50: 340 µM
[12]
  inhibition: inactive
Homo sapiens [13]
  Ratio IC50: > 5000
Prothrombin
  IC50: 460 µM
[14]
  Cmax: 57 µg/mL
[15]
  Activity: Non-Toxic
Homo sapiens [16]
  Ratio IC50: > 5000
[17]
  Activity: Non-Toxic
[18]
  Activity: Non-Toxic
Mus musculus [19]
  Activity: inactive
Coagulation factor XI
  IC50: 0.0142 µM
Mus musculus [20]
  Activity: Active
[21]
  Activity: Non-Toxic
[22]
  Activity: Non-Toxic
[23]
  MRT last: 19.2 min
[24]
  AUC(0-t): 18300 ng·h/mL
[25]
  AUC(0-inf): 18400 ng·h/mL
[26]
  Activity: Non-Toxic
[27]
  Activity: Non-Toxic
